# According to patent US20220105124A1, “METHODS FOR TARGETED TREATMENT AND PREDICTION OF PATIENT SURVIVAL IN CANCER” (University of Florida Research Foundation, Incorporated, priority 2019, published 2022):
# System: GBM cells with high VDR expression
# Experiment: Treating GBM cells with high VDR expression with vitamin D
# Format: cell-based
# Settings: GBM cells with high VDR expression treated with vitamin D
# Description: The influence of vitamin D is also examined for its role the link between VDR (vitamin D receptor) and GBM prognosis. Addition of vitamin D is used to determine if vitamin D will direct VDR to a beneficial pro-immune function of liganded VDR. Removal of vitamin D is used to determine if vitamin D deficiency leads to harmful pro-tumor unliganded VDR signal.
substance,measurement,value
Vitamin D,Sox2 expression,"signal from VDR, leading to lower Sox2,"
same,VDR expression,unaffected.
same,abnormal signal from VDR,cells with vitamin D reduces this abnormal
